Results as given in patent US20220306695A1, “COMPSTATIN ANALOGUES AND THEIR MEDICAL USES” (priority 2019, published 2022).
Positions of bridges follow the written chain, without caps; N, C: chain ends. Non-standard residues stand in square brackets, D forms with d. Residues, ends and D or L forms follow the SMILES beside them. Sar = CNCC(=O)O

Legend:
[1] = tested on: classical complement pathway; assay: In vitro haemolysis assay (inhibition of classical complement pathway); format: cell-based, human; conditions: Table 3; human serum, sensitized sheep red blood cells; read-out: IC50[nM], in vitro analysis of inhibition of hemolysis
Procedure, shortened: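 Serially diluted compound (9 points) was preincubated 15 min at room temperature with diluted human serum, titrated per batch to give 70-90% maximal haemolysis, in Tris/casein buffer pH 7.4 with Mg2+/Ca2+. Antibody-sensitized sheep erythrocytes were then added for 30 min at 37° C, and the reaction was stopped with EDTA. Haemolysis was read at A405, with IC50 from 4PL fit.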

[2] = Solubility test at 10 mg/mL (visual inspection and light scattering); format: physicochemical; conditions: for Solubility, Condition 1 Acetate pH 4: 10 mg/mL compound in 100 mM acetate pH 4; for Solubility, Condition 2 Acetate pH 5: 10 mg/mL compound in 100 mM acetate pH 5; for Solubility, Condition 3 Phosphate pH 6: 10 mg/mL compound in 100 mM phosphate pH 6; for Solubility, Condition 4 Phosphate pH 7: 10 mg/mL compound in 100 mM phosphate pH 7; for Solubility, Condition 5 Phosphate pH 7.5: 10 mg/mL compound in 100 mM phosphate pH 7.5

CC[C@H](C)[C@@H]1NC(=O)[C@@H](NC(=O)[C@@H](NC(=O)[C@H](CCC(=O)O)NC(=O)[C@H](CO)NC(=O)[C@H](CCC(=O)O)NC(C)=O)[C@@H](C)CC)CSSC[C@@H](C(=O)N[C@H](C(N)=O)[C@@H](C)O)NC(=O)[C@H](CCCNC(=N)N)NC(=O)[C@H](Cc2c[nH]cn2)NC(=O)[C@H](CCC(=O)O)NC(=O)CNC(=O)[C@H](Cc2c[nH]c3ccccc23)NC(=O)[C@H](CC(=O)O)NC(=O)[C@H](CCC(N)=O)NC(=O)[C@H](Cc2c[nH]c3ccccc23)NC1=O [Compound 31] (Ac-ESEICIWQDWGEHRCT-NH2; disulfide 5-15)
IC50 [1]: < 100 nM
Solubility, Condition 1 Acetate pH 4 [2]: + (denotes solubility at the given condition, as determined by UV absorbance being less than 0.1 AU at 340 nm and the sample being clear when manually inspected.)
Solubility, Condition 2 Acetate pH 5 [2]: + (denotes solubility at the given condition, as determined by UV absorbance being less than 0.1 AU at 340 nm and the sample being clear when manually inspected.)
Solubility, Condition 3 Phosphate pH 6 [2]: + (denotes solubility at the given condition, as determined by UV absorbance being less than 0.1 AU at 340 nm and the sample being clear when manually inspected.)
Solubility, Condition 4 Phosphate pH 7 [2]: + (denotes solubility at the given condition, as determined by UV absorbance being less than 0.1 AU at 340 nm and the sample being clear when manually inspected.)
Solubility, Condition 5 Phosphate pH 7.5 [2]: + (denotes solubility at the given condition, as determined by UV absorbance being less than 0.1 AU at 340 nm and the sample being clear when manually inspected.)

CC[C@H](C)[C@@H]1NC(=O)[C@@H](NC(=O)[C@@H](NC(=O)[C@H](CCC(=O)O)NC(=O)[C@H](CO)NC(C)=O)[C@@H](C)CC)CSSC[C@@H](C(=O)N[C@H](C(=O)N[C@@H](CCC(=O)O)C(=O)N[C@@H](C)C(N)=O)[C@@H](C)O)NC(=O)[C@H](CCCNC(=N)N)NC(=O)[C@H](Cc2c[nH]cn2)NC(=O)[C@H](CCC(=O)O)NC(=O)CNC(=O)[C@H](Cc2c[nH]c3ccccc23)NC(=O)[C@H](CC(=O)O)NC(=O)[C@H](CCC(N)=O)NC(=O)[C@H](Cc2c[nH]c3ccccc23)NC1=O [Compound 32] (Ac-SEICIWQDWGEHRCTEA-NH2; disulfide 4-14)
IC50 [1]: < 100 nM
Solubility, Condition 1 Acetate pH 4 [2]: − (denotes lack of solubility at the given condition, as UV absorbance at 340 nm exceeds 0.1 AU and/or it is visibly turbid or contains particles.)
Solubility, Condition 2 Acetate pH 5 [2]: − (denotes lack of solubility at the given condition, as UV absorbance at 340 nm exceeds 0.1 AU and/or it is visibly turbid or contains particles.)
Solubility, Condition 3 Phosphate pH 6 [2]: − (denotes lack of solubility at the given condition, as UV absorbance at 340 nm exceeds 0.1 AU and/or it is visibly turbid or contains particles.)
Solubility, Condition 4 Phosphate pH 7 [2]: + (denotes solubility at the given condition, as determined by UV absorbance being less than 0.1 AU at 340 nm and the sample being clear when manually inspected.)
Solubility, Condition 5 Phosphate pH 7.5 [2]: + (denotes solubility at the given condition, as determined by UV absorbance being less than 0.1 AU at 340 nm and the sample being clear when manually inspected.)

CC[C@H](C)[C@@H]1NC(=O)[C@@H](NC(=O)[C@@H](NC(=O)[C@H](CCC(=O)O)NC(C)=O)[C@@H](C)CC)CSSC[C@@H](C(=O)N[C@H](C(=O)N[C@@H](CCC(=O)O)C(N)=O)[C@@H](C)O)NC(=O)[C@H](CCCNC(=N)N)NC(=O)[C@H](Cc2c[nH]cn2)NC(=O)[C@H](CCC(=O)O)NC(=O)CNC(=O)[C@H](Cc2c[nH]c3ccccc23)NC(=O)[C@H](CC(=O)O)NC(=O)[C@H](CCC(N)=O)NC(=O)[C@H](Cc2c[nH]c3ccccc23)NC1=O [Compound 33] (Ac-EICIWQDWGEHRCTE-NH2; disulfide 3-13)
IC50 [1]: < 100 nM
Solubility, Condition 1 Acetate pH 4 [2]: − (denotes lack of solubility at the given condition, as UV absorbance at 340 nm exceeds 0.1 AU and/or it is visibly turbid or contains particles.)
Solubility, Condition 2 Acetate pH 5 [2]: − (denotes lack of solubility at the given condition, as UV absorbance at 340 nm exceeds 0.1 AU and/or it is visibly turbid or contains particles.)
Solubility, Condition 3 Phosphate pH 6 [2]: + (denotes solubility at the given condition, as determined by UV absorbance being less than 0.1 AU at 340 nm and the sample being clear when manually inspected.)
Solubility, Condition 4 Phosphate pH 7 [2]: + (denotes solubility at the given condition, as determined by UV absorbance being less than 0.1 AU at 340 nm and the sample being clear when manually inspected.)
Solubility, Condition 5 Phosphate pH 7.5 [2]: + (denotes solubility at the given condition, as determined by UV absorbance being less than 0.1 AU at 340 nm and the sample being clear when manually inspected.)

CC[C@H](C)[C@@H]1NC(=O)[C@@H](NC(=O)[C@@H](NC(=O)[C@H](CCC(=O)O)NC(=O)[C@H](CO)NC(=O)[C@H](CCC(=O)O)NC(C)=O)[C@@H](C)CC)CSSC[C@@H](C(=O)N[C@@H](CCC(=O)O)C(=O)NCC(=O)N[C@@H](CCC(=O)O)C(N)=O)NC(=O)[C@H](CCCNC(=N)N)NC(=O)[C@H](Cc2c[nH]cn2)NC(=O)[C@H](CCC(=O)O)NC(=O)CNC(=O)[C@H](Cc2c[nH]c3ccccc23)NC(=O)[C@H](CC(=O)O)NC(=O)[C@H](CCC(N)=O)NC(=O)[C@H](Cc2c[nH]c3ccccc23)NC1=O [Compound 36] (Ac-ESEICIWQDWGEHRCEGE-NH2; disulfide 5-15)
IC50 [1]: < 250 nM
Solubility, Condition 1 Acetate pH 4 [2]: − (denotes lack of solubility at the given condition, as UV absorbance at 340 nm exceeds 0.1 AU and/or it is visibly turbid or contains particles.)
Solubility, Condition 2 Acetate pH 5 [2]: − (denotes lack of solubility at the given condition, as UV absorbance at 340 nm exceeds 0.1 AU and/or it is visibly turbid or contains particles.)
Solubility, Condition 3 Phosphate pH 6 [2]: − (denotes lack of solubility at the given condition, as UV absorbance at 340 nm exceeds 0.1 AU and/or it is visibly turbid or contains particles.)
Solubility, Condition 4 Phosphate pH 7 [2]: + (denotes solubility at the given condition, as determined by UV absorbance being less than 0.1 AU at 340 nm and the sample being clear when manually inspected.)
Solubility, Condition 5 Phosphate pH 7.5 [2]: + (denotes solubility at the given condition, as determined by UV absorbance being less than 0.1 AU at 340 nm and the sample being clear when manually inspected.)

CC[C@H](C)[C@H](NC(=O)[C@H](C)NC(=O)[C@H](CO)NC(=O)CNC(C)=O)C(=O)N[C@H]1CSSC[C@@H](C(=O)N(C)CC(=O)N[C@@H](CCC(=O)O)C(N)=O)NC(=O)[C@H](CCCNC(=N)N)NC(=O)[C@H](Cc2c[nH]cn2)NC(=O)[C@H](CCC(=O)O)NC(=O)CNC(=O)[C@H](Cc2c[nH]c3ccccc23)NC(=O)[C@H](CC(=O)O)NC(=O)[C@H](CCC(N)=O)NC(=O)[C@H](Cc2c[nH]c3ccccc23)NC(=O)[C@H]([C@@H](C)CC)NC1=O [Compound 40] (Ac-GSAICIWQDWGEHRC[Sar]E-NH2; disulfide 5-15)
IC50 [1]: < 250 nM
Solubility, Condition 1 Acetate pH 4 [2]: − (denotes lack of solubility at the given condition, as UV absorbance at 340 nm exceeds 0.1 AU and/or it is visibly turbid or contains particles.)
Solubility, Condition 2 Acetate pH 5 [2]: − (denotes lack of solubility at the given condition, as UV absorbance at 340 nm exceeds 0.1 AU and/or it is visibly turbid or contains particles.)
Solubility, Condition 3 Phosphate pH 6 [2]: + (denotes solubility at the given condition, as determined by UV absorbance being less than 0.1 AU at 340 nm and the sample being clear when manually inspected.)
Solubility, Condition 4 Phosphate pH 7 [2]: + (denotes solubility at the given condition, as determined by UV absorbance being less than 0.1 AU at 340 nm and the sample being clear when manually inspected.)
Solubility, Condition 5 Phosphate pH 7.5 [2]: + (denotes solubility at the given condition, as determined by UV absorbance being less than 0.1 AU at 340 nm and the sample being clear when manually inspected.)

CC[C@H](C)[C@H](NC(=O)[C@H](C)NC(=O)[C@H](CO)NC(C)=O)C(=O)N[C@H]1CSSC[C@@H](C(=O)N(C)CC(=O)N[C@@H](CCC(=O)O)C(N)=O)NC(=O)[C@H](CCCNC(=N)N)NC(=O)[C@H](Cc2c[nH]cn2)NC(=O)[C@H](CCC(=O)O)NC(=O)CNC(=O)[C@H](Cc2c[nH]c3ccccc23)NC(=O)[C@H](CC(=O)O)NC(=O)[C@H](CCC(N)=O)NC(=O)[C@H](Cc2c[nH]c3ccccc23)NC(=O)[C@H]([C@@H](C)CC)NC1=O [Compound 41] (Ac-SAICIWQDWGEHRC[Sar]E-NH2; disulfide 4-14)
IC50 [1]: < 250 nM
Solubility, Condition 1 Acetate pH 4 [2]: − (denotes lack of solubility at the given condition, as UV absorbance at 340 nm exceeds 0.1 AU and/or it is visibly turbid or contains particles.)
Solubility, Condition 2 Acetate pH 5 [2]: − (denotes lack of solubility at the given condition, as UV absorbance at 340 nm exceeds 0.1 AU and/or it is visibly turbid or contains particles.)
Solubility, Condition 3 Phosphate pH 6 [2]: + (denotes solubility at the given condition, as determined by UV absorbance being less than 0.1 AU at 340 nm and the sample being clear when manually inspected.)
Solubility, Condition 4 Phosphate pH 7 [2]: + (denotes solubility at the given condition, as determined by UV absorbance being less than 0.1 AU at 340 nm and the sample being clear when manually inspected.)
Solubility, Condition 5 Phosphate pH 7.5 [2]: + (denotes solubility at the given condition, as determined by UV absorbance being less than 0.1 AU at 340 nm and the sample being clear when manually inspected.)
